In US20110118337A1, “Method of Using Compositions Comprising MIR-192 and/or MIR-215 for the Treatment of Cancer” (Merck Sharp & Dohme Corp., priority 2008, published 2011):
Where “and” joins values, the source holds several entries; their conditions need not be identical. Equal values may be shown once.

Key:
HCT116DICER^ex5 cells [1] = assay: BrdU pulse-labeling, flow cytometry (S-phase); type: cell-based, human; settings: BrdU pulse-labeled; 10 nM duplex
Protocol: (§1) At 48 hours post transfection, cells were left untreated, treated with nocodazole (100 ng/mL, Sigma-Aldrich), or treated with aphidicolin (2 μg/mL, Sigma-Aldrich) for an additional 18 hours before harvesting. The cells were then trypsinized, collected, fixed and stained with a propidium iodide solution. BrdU-labeling was performed according to the manufacturer's instructions (BD-Pharmigen). For phospho-histone H3 analysis, cells were fixed and permeabilized with IPF buffer (100 mM PIPES pH 6.8, 10 mM EDTA, 1 mM MgCl2, 0.2% Triton X-100, 4% formaldehyde) and stained with propidium iodide and anti-phospho-histone H3 antibody conjugated to Alexa-488 (Cell Signaling Technology). The cells were analyzed using a FACSCalibur flow cytometer (Beacton Dickinson) and FlowJo software (Tree Star, Inc.).
The transfected cells were also pulse-labeled with the thymidine analog 5-bromo-deoxyuridine (BrdU) to assay for defects in DNA synthesis. Using flow cytometry and it was determined that the percentage of cells in S-phase in the mock transfected population was 37.3%, whereas the percentage of cells in S-phase in the miR-192 transfected population was 11.9%.

[2] = tested on: CDC7, LMNB2, MAD2L1 and CUL5; assay: Western blot analysis; type: cell-based, human; settings: HCT116DICER^ex5 cells, 10 nM, data not shown
Protocol: HCT116DICER^ex5 cells were transfected with 10 nM siRNA against luciferase or 10 nM miR-192 or 10 nM miR-192 mutant, and lysates were prepared at 28 hours or 48 hours post-transfection. For immunoblotting, 30 μg of whole cell lysate extracted in a modified RIPA buffer (150 mM NaCl, 50 mM Tris pH 7.4, 1 mM EDTA, 1% NP-40, 0.1% SDS) was used per sample. CDC7, LMNB2, MAD2L1 and CUL5 were detected by Western blot using anti-CDC7 (sc-56275, Santa Cruz Biotechnology Inc.), anti-LMNB2 (MAB3536, Millipore), anti-MAD2L1 (ab55452, Abcam) and anti-CUL5 (Invitrogen) antibodies, and protein levels were compared to the level of β-actin expression as detected by an anti-β-actin antibody (Abcam).

[3] = tested on: 3′ UTRs of the 18 candidate genes in U-2-OS cells; assay: 3′ UTR luciferase reporter analysis; type: cell-based; settings: 10 nM, 24 hours post-transfection
Description: In order to test whether miR-192 is regulating these genes through seed sequence-specific recognition of binding sites within their 3' UTRs, a series of reporter constructs were generated containing the entire natural 3' UTRs of the 18 candidate genes (BCL2, CDC7, CUL5, DLG5, DTL, ERCC3, HOXA10, HRH1, LMNB2, MAD2L1, MCM10, MIS12, MPHOSPH1, PIM1, PRPF38A, […]1, SEPT10 and SMARCB1) inserted downstream of a luciferase open reading frame (SwitchGear Genomics) to create 3' UTR luciferase reporter plasmids. U-2-OS cells were transfected first with 10 nM miR-192 or 10 nM miR-192 mutant, and subsequently transfected 4 to 6 hours later with these 3' UTR reporter plasmids. A renilla luciferase expression plasmid from dual luciferase system (Promega) was used as an internal control. Luciferase activity was measured at 24 hours post-transfection, and quantified relative to renilla luciferase activity.

HCT116DICER^ex5 cells [4] = assay: Cell cycle FACS analysis of siRNAs against top G1 and G2 arrest genes (nocodazole or aphidicolin); type: cell-based, human; settings: 10 mM miR-192
Protocol: Of the 62 genes shown above in TABLE 6, the 10 genes whose targeting by siRNA caused the largest percentage of cells to arrest in G1, listed below in TABLE 7, were transfected into HCT116DICER^ex5 cells in another experiment as follows.
HCT116DICER^ex5 cells were transfected with […] miR-192 or 100 nM siRNA against luciferase, or 100 nM siRNA (one siRNA duplex of the pool of three) against the putative miR-192 target of interest, as indicated in TABLES 7 and 8. At 48 hours post transfection, cells were treated with nocodazole or aphicicolin for an additional 18 hours prior to FACS analysis. The results for the nocodazole treated cells (% of cells in G1) are provided in TABLE 7, and graphically illustrated in FIG. 3A. The results for the aphidicolin treated cells (% of cells in G2) are provided in TABLE 8 and graphically illustrated in FIG. 3B.

HCT116DICER^ex5 cells [5] = assay: Cell cycle distribution by propidium iodide FACS after miR-192 duplex transfection (untreated, nocodazole or aphidicolin); type: cell-based, human; settings: for % Cells with 2N (G1/S) / % Cells with 4N (G2/M): 10 nM duplex, 66 hours after transfection
Protocol: as §1

[6] = compared with mock or mutant miR-192-transfected cells

## miR-192: Synthetic duplex mimetic of miR-192, guide CUGACCUAUGAAUUGACAGCC (SEQ ID NO:1), passenger SEQ ID NO:7 (sense CUGUCAAUUCAUCGGUCUGAU; listed as RNA, chemistry not given here; listed as Homo sapiens)
HCT116DICER^ex5 cells [1]
  percentage of cells in S-phase: 11.9%
[2]
  protein level: downregulated
[3]
  regulation of 3′ UTR luciferase reporters of the 18 genes: regulated
HCT116DICER^ex5 cells [4]; aphidicolin 18 hours from 48 hours post transfection
  % Cells in G2: 42.3%
HCT116DICER^ex5 cells [4]; nocodazole 18 hours from 48 hours post transfection
  % Cells in G1: 37.9%
HCT116DICER^ex5 cells [5]; aphidicolin 2 μg/mL 18 hours
  % Cells with 2N (G1/S): 46.3%
  % Cells with 4N (G2/M): 47.4%
HCT116DICER^ex5 cells [5]; [6]
  G2/M phase population: increase
  S phase population: significant decrease
HCT116DICER^ex5 cells [5]; nocodazole 100 ng/mL 18 hours
  % Cells with 2N (G1/S): 36% and 36.3%
  % Cells with 4N (G2/M): 56.5%
HCT116DICER^ex5 cells [5]; treated with aphidicolin
  accumulation in the G2/M phase: a significant fraction
HCT116DICER^ex5 cells [5]; untreated
  % Cells with 2N (G1/S): 48.6%
  % Cells with 4N (G2/M): 44.6%
